Measurements reported in ChEMBL document CHEMBL5352386 (Eur J Med Chem, 2022).
Calls of active or inactive are those of the source. The rule behind the calls is not given here.

Legend:
[1] = Acute toxicity in overnight fasted female ICR mouse assessed as animal death at 1 g/Kg, IG administered as single dose measured upto 15 days; details: in vivo, po, 1000 mg/kg, 360 h, time < 15 day
[2] = AUC (0 to t) in Sprague-Dawley rat at 10 mg/kg, po measured upto 1440 mins by LC/MS/MS analysis; type: ADME, organism-based; parameters: time < 1440 min, dose 10 mg/kg, route po; details: in vivo
Cholinesterase [3] = biological target: Cholinesterase (Equus caballus, UniProt P81908); assay: Inhibition of equine serum BuChE using butyrylthiocholine iodide as substrate incubated for 10 mins followed by substrate addition by DTNB-reagent based Ellman's colorimetric assay
Cholinesterase [4] = biological target: Cholinesterase (Homo sapiens, UniProt P06276); assay: Inhibition of human BuChE using butyrylthiocholine iodide as substrate incubated for 10 mins followed by substrate addition by DTNB-reagent based Ellman's colorimetric assay
PC-12 [5] = assay: Cytotoxicity against rat PC12 cells assessed as survival rate at 100 uM measured after 24 hrs by MTT assay relative to control; details: PC-12, 24 h, read-out: Survival
SH-SY5Y [6] = assay: Cytotoxicity against human SH-SY5Y cells assessed as survival rate at 100 uM measured after 24 hrs by MTT assay relative to control; type: functional; details: read-out: Survival
[7] = Cytotoxicity against mouse BV-2 cells assessed as inhibition of cell growth measured after 24 hrs by MTT assay; type: toxicity, cell-based
L02 = assay: Cytotoxicity against human L02 cells assessed as survival rate at 100 uM measured after 24 hrs by MTT assay relative to control; type: functional; details: read-out: Survival
[8] = Acute toxicity in overnight fasted male ICR mouse assessed as animal death at 1 g/Kg, IG administered as single dose measured upto 15 days; details: in vivo, po, 1000 mg/kg, 360 h, time < 15 day
[9] = Acute toxicity in overnight fasted male ICR mouse assessed as body weight loss at 1 g/Kg, IG administered as single dose measured upto 15 days; details: in vivo, po, 1000 mg/kg, 360 h, time < 15 day
[10] = Acute toxicity in overnight fasted female ICR mouse assessed as body weight loss at 1 g/Kg, IG administered as single dose measured upto 15 days; details: in vivo, po, 1000 mg/kg, 360 h, time < 15 day
[11] = Acute toxicity in overnight fasted male ICR mouse assessed as abnormal behavior at 1 g/Kg, IG administered as single dose measured upto 15 days; details: in vivo, po, 1000 mg/kg, 360 h, time < 15 day
[12] = Acute toxicity in overnight fasted female ICR mouse assessed as abnormal behavior at 1 g/Kg, IG administered as single dose measured upto 15 days; details: in vivo, po, 1000 mg/kg, 360 h, time < 15 day
[13] = Metabolic stability in human liver microsomes assessed as half life at 1 uM incubated upto 50 mins in presence of NADPH by LC/MS/MS analysis; type: ADME, Microsome
[14] = Metabolic stability in human liver microsomes assessed as parent compound remaining at 1 uM incubated upto 50 mins in presence of NADPH by LC/MS/MS analysis; type: ADME, Microsome; details: read-out: Stability
[15] = AUC (0 to t) in Sprague-Dawley rat at 10 mg/kg, iv measured upto 1440 mins by LC/MS/MS analysis; type: ADME, organism-based; parameters: time < 1440 min, dose 10 mg/kg, route iv; details: Sprague-Dawley, in vivo
[16] = AUC (0 to infinity) in Sprague-Dawley rat at 10 mg/kg, po measured upto 1440 mins by LC/MS/MS analysis; type: ADME, organism-based; parameters: dose 10 mg/kg, time < 1440 min, route po; details: in vivo
[17] = AUC (0 to infinity) in Sprague-Dawley rat at 10 mg/kg, iv measured upto 1440 mins by LC/MS/MS analysis; type: ADME, organism-based; parameters: dose 10 mg/kg, time < 1440 min, route iv; details: Sprague-Dawley, in vivo
[18] = MRT infinity in Sprague-Dawley rat at 10 mg/kg, po measured upto 1440 mins by LC/MS/MS analysis; type: ADME, organism-based; details: in vivo
[19] = MRT infinity in Sprague-Dawley rat at 10 mg/kg, iv measured upto 1440 mins by LC/MS/MS analysis; type: ADME, organism-based; details: in vivo
[20] = Half life in Sprague-Dawley rat at 10 mg/kg, po measured upto 1440 mins by LC/MS/MS analysis; type: ADME, organism-based; details: in vivo
[21] = Half life in Sprague-Dawley rat at 10 mg/kg, iv measured upto 1440 mins by LC/MS/MS analysis; type: ADME, organism-based; details: in vivo
[22] = Tmax in Sprague-Dawley rat at 10 mg/kg, po measured upto 1440 mins by LC/MS/MS analysis; type: ADME, organism-based; details: in vivo
[23] = Cmax in Sprague-Dawley rat at 10 mg/kg, po measured upto 1440 mins by LC/MS/MS analysis; type: ADME, organism-based; parameters: time < 1440 min, dose 10 mg/kg, route po; details: in vivo, 24 h
[24] = Cmax in Sprague-Dawley rat at 10 mg/kg, iv measured upto 1440 mins by LC/MS/MS analysis; type: ADME, organism-based; parameters: dose 10 mg/kg, time < 1440 min, route iv; details: Sprague-Dawley, in vivo, read-out: Cmax
[25] = Oral bioavailability in Sprague-Dawley rat at 10 mg/kg measured upto 1440 mins by LC/MS/MS analysis; type: ADME, organism-based; details: in vivo
[26] = Ratio of drug exposure in plasma to brain in ICR mouse measured after 10 mins by LC/MS/MS analysis; type: ADME, cell-free; details: in vivo
[27] = Ratio of drug exposure in plasma to brain in ICR mouse measured after 20 mins by LC/MS/MS analysis; type: ADME, cell-free; details: in vivo
[28] = Ratio of drug exposure in plasma to brain in ICR mouse measured after 30 mins by LC/MS/MS analysis; type: ADME, cell-free; details: in vivo, 0.5 h
[29] = Ratio of drug exposure in plasma to brain in ICR mouse measured after 120 mins by LC/MS/MS analysis; type: ADME, cell-free; details: in vivo, 2 h
[30] = Ratio of drug exposure in plasma to brain in ICR mouse measured after 60 mins by LC/MS/MS analysis; type: ADME, cell-free; details: in vivo, 1 h
[31] = Ratio of drug exposure in plasma to brain in ICR mouse measured after 240 by LC/MS/MS analysis; type: ADME, cell-free; details: in vivo, 4 h, time 240 min
[32] = Ratio of drug exposure in plasma to brain in ICR mouse measured after 480 mins by LC/MS/MS analysis; type: ADME, cell-free; details: in vivo, 8 h
[33] = Cmax in ICR mouse plasma administered as oral dose by LC/MS/MS analysis; type: ADME; parameters: route po
[34] = Cmax in ICR mouse brain administered as oral dose by LC/MS/MS analysis; type: ADME, tissue-based; parameters: route po
[35] = AUC (0 to t) in ICR mouse plasma administered as oral dose by LC/MS/MS analysis; type: ADME; parameters: route po
[36] = AUC (0 to t) in ICR mouse brain administered as oral dose by LC/MS/MS analysis; type: ADME, tissue-based; parameters: route po
[37] = Ratio of Cmax in ICR mouse brain to Cmax in ICR mouse plasma; type: ADME, cell-free
[38] = Ratio of AUCt in ICR mouse brain to AUCt in ICR mouse plasma; type: ADME, cell-free
[39] = Drug uptake in ICR mouse central nervous system; type: ADME, tissue-based; details: in vivo
Mus musculus [40] = assay: Neuroprotective activity against Abeta42 induced cognition impairement in AD mouse model assessed as reduction in latency time to platform at 10 mg/kg, po measured after 14 days by Morris water maze analysis; type: functional, organism-based; details: time 14.0 day
Mus musculus [41] = assay: Neuroprotective activity against Abeta42 induced cognition impairement in AD mouse model assessed as reduction in confusion of escape trajectory at 10 mg/kg, po measured after 14 days; type: functional, organism-based; details: time 14.0 day
SH-SY5Y [42] = assay: Neuroprotective activity against Abeta1-42 induced toxicity in human SH-SY5Y cells at 1 to 5 uM preincubated for 1 hr with compound followed by co-incubation with Abeta1-42 and measured after 24 hrs by MTT assay; type: functional, cell-based; details: dose 1-5 µM, time 25.0 hrs
SH-SY5Y [43] = assay: Neuroprotective activity against glutamate induced toxicity in human SH-SY5Y cells at low concentration preincubated for 1 hr with compound followed by co-incubation with glutamate and measured after 24 hrs by MTT assay; type: functional, cell-based; details: time 25.0 hrs
SH-SY5Y [44] = assay: Neuroprotective activity against glutamate induced toxicity in human SH-SY5Y cells assessed as effect on cell survival rate at 10 to 20 uM preincubated for 1 hr with compound followed by co-incubation with glutamate and measured after 24 hrs by MTT assay; type: functional, cell-based; details: dose 10-20 µM, time 25.0 hrs
PC-12 [45] = assay: Cytoprotective activity against H2O2 induced cell damage in rat PC12 cells at 10 to 20 uM preincubated for 1 hr with compound followed by co-incubation with H2O2 and measured after 24 hrs by MTT assay; type: functional, cell-based; details: dose 10-20 µM, time 25.0 hrs
BV-2 = assay: Induction of antioxidant effect in mouse BV-2 cells assessed as prevention of LPS-induced ROS production preincubated for 1 hr with compound followed by LPS stimulation and measured after 24 hrs by DCFH-DA staining based inverted fluorescence microscopy analysis; type: functional, cell-based; details: time 25.0 hrs
SH-SY5Y [46] = assay: Induction of antioxidant effect in human SH-SY5Y cells assessed as prevention of Abeta1-42 induced ROS production preincubated for 1 hr with compound followed by Abeta1-42 stimulation and measured after 24 hrs by DCFH-DA staining based inverted fluorescence microscopy analysis; type: functional, cell-based; details: time 25.0 hrs
Mus musculus [47] = assay: Neuroprotective activity against Abeta42 induced cognition impairement in AD ICR mouse model assessed as increase in body weight at 10 mg/kg measured after 21 days; type: functional, organism-based; details: time 21.0 day
Mus musculus [48] = assay: Neuroprotective activity against Abeta42 induced cognition impairement in AD ICR mouse model assessed as increase in ghrelin level in mouse plasma administered as oral dose for 21 days; type: functional, organism-based; details: time 21.0 day
Mus musculus [49] = assay: Neuroprotective activity against Abeta42 induced cognition impairement in AD ICR mouse model assessed as increase in ghrelin level in mouse brain administered as oral dose for 21 days; type: functional, organism-based; details: time 21.0 day

Cholinesterase (Equus caballus, UniProt P81908), sequence (P81908 whole entry): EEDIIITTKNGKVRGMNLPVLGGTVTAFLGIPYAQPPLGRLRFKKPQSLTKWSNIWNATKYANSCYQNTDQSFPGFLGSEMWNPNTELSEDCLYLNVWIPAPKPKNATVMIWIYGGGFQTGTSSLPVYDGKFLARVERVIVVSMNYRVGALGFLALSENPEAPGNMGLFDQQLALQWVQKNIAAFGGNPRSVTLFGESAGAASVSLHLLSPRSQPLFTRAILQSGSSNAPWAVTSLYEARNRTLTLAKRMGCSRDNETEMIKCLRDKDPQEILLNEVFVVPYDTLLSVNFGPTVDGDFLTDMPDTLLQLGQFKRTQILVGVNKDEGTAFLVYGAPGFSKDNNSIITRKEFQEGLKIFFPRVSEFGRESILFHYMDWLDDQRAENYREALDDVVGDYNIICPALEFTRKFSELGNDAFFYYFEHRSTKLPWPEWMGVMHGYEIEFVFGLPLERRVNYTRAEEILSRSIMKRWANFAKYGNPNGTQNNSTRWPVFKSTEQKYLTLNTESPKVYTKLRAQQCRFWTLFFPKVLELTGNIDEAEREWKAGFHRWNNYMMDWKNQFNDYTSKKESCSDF
Cholinesterase (Homo sapiens, UniProt P06276), sequence (P06276 whole entry): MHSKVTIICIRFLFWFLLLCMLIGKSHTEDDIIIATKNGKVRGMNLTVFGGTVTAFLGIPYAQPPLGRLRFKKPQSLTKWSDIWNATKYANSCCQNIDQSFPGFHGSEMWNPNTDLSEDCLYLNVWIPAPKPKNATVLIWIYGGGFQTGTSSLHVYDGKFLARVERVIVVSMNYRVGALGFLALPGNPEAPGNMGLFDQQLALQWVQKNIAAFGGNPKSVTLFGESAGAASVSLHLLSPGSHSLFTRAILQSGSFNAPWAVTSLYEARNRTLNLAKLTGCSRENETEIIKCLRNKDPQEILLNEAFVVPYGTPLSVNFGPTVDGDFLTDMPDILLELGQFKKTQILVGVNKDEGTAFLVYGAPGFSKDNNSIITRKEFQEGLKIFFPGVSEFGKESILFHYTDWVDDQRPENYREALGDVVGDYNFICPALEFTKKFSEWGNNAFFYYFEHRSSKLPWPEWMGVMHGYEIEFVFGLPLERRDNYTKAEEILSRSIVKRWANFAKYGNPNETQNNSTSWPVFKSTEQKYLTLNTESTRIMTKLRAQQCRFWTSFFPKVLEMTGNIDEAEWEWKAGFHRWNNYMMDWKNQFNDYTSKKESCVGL

With `N#Cc1cc(Br)cc(NC(=O)Cn2c(-c3nonc3N)nc3ccccc32)c1` the Activity [1] was “Non-Toxic”, the AUC(0-t) at 24 h [2] was 628 ng·h/mL and the IC50 (Cholinesterase [3]) was 0.15 nM. It also gave an IC50 (Cholinesterase [4]) of 45.2 nM, a viability at 100 µM (PC-12 [5]) of 54.6% and a viability at 100 µM (SH-SY5Y [6]) of 57.8%. The IC50 at 24 h [7] was 27800 nM, the viability at 100 µM (L02) was 72.4% and the Activity [8] was “Non-Toxic”. For the same compound, the Activity [9] was “Non-Toxic”, the Activity [10] was “Non-Toxic” and the Activity [11] was “Non-Toxic”. For the same compound, the Activity [12] was “Non-Toxic”, the half-life at 1 µM [13] was 5.75 h and the remaining at 50 min, 1 µM [14] was 89.7%. It also gave an AUC(0-t) at 24 h [15] of 860 ng·h/mL, an AUC(0-inf) [16] of 662 ng·h/mL and an AUC(0-inf) [17] of 1090 ng·h/mL. It also gave an MRT inf [18] of 11.6 h, an MRT inf [19] of 14.1 h and a half-life [20] of 5.47 h. The half-life [21] was 8.87 h, the Tmax [22] was 9.5 min and the Cmax [23] was 44.73 ng/mL. For the same compound, the Cmax [24] was 488 ng/mL, the bioavailability [25] was 73.4% and the Ratio [26] was 13.33. The Ratio [27] was 2.23, the Ratio [28] was 0.82 and the Ratio [29] was 0.54. The Ratio [30] was 0.27, the Ratio [31] was 0.27 and the Ratio [32] was 0.88. The Cmax [33] was 1760 ng/mL, the Cmax [34] was 179 ng/mL and the AUC(0-t) [35] was 1160 ng·h/mL. The AUC(0-t) [36] was 356 ng·h/mL, the Kp [37] was 0.1 and the Kp [38] was 0.31. For the same compound, the Drug uptake [39] was “Active”, the Activity (Mus musculus [40]) was “Active” and the Activity (Mus musculus [41]) was “Active”. For the same compound, the Activity (SH-SY5Y [42]) was “Active”, the Activity (SH-SY5Y [43]) was “Active” and the Activity (SH-SY5Y [44]) was “Active”. The Activity (PC-12 [45]) was “Active”, the Activity (BV-2) was “Active” and the Activity (SH-SY5Y [46]) was “Active”. For the same compound, the Activity (Mus musculus [47]) was “Active”, the Activity (Mus musculus [48]) was “Active” and the Activity (Mus musculus [49]) was “Active”.
